The source of these data is patent publication US20260232652A1, “COMBINATIONS OF DGK (DIACYLGLYCEROL KINASE) INHIBITORS” (priority 2023, published 2026).

SMILES strings stand for the structures. Values joined by “and” are separate entries in the source; they are usually repeats but may differ in a detail not shown here. Equal values may be shown once.

Experiment [1] deals with glioblastoma multiforme (GBM) cells. To be noted: concurrent administration; cited from earlier work.
Another experiment has as its target T1, human DGKalpha (Homo sapiens, UniProt P23743).
T1 construct: made in house; host or cells: baculovirus-infected Sf9 insect cells
Kind of experiment: Human DGKalpha kinase activity inhibition assay (ADP-Glo). It counts as biochemical. The settings on record: read-out: IC50 hDGKa. On the procedure: Human DGKalpha inhibitory activity of compounds of the present invention was quantified employing the human DGKalpha kinase activity assay as described in the following paragraphs. In essence, the enzyme activity was measured by quantification of the adenosine-di-phosphate (ADP) generated as a co-product of the enzyme reaction via the “ADP-Glo™ Kinase Assay” kit from the company Promega. This detection system works as follows: In a first step the ATP not consumed in the kinase reaction is quantitatively converted to cAMP employing an adenylate cyclase (“ADP-Glo-reagent”), then the adenylate cyclase is stopped and the ADP generated in the kinase reaction converted to ATP, which subsequently generates in a luciferase-based reaction a glow-luminescence signal (“Kinase Detection Reagent”).
(§1) C-terminally FLAG-tagged, recombinant full-length human DGKalpha (expressed in baculovirus infected insect cells, purified using anti-Flag pulldown and size exclusion chromatography as described below, DGKa_hu_1) was used as enzyme. As substrate for the kinase 1,2-dioleoyl-sn-glycerol, reconstituted in octyl-β-D-glucopyranoside micelles, was used. […] Then 35 volumes of 50 mM MOPS buffer (pH 7.4) were added to yield a solution of 0.28 mM 1,2 dioleoyl-sn-glycerol and 200 mM octyl-β-D-glucopyranoside, which was aliquoted, flash-frozen in liquid nitrogen, and stored at −20° C. until use.
For the assay 50 nl of a 100-fold concentrated solution of the test compound in dimethyl sulfoxide (DMSO, Sigma) was pipetted into either a white 1536-well or a white low-volume 384-well microtiter plate (both Greiner Bio-One, Frickenhausen, Germany). […] The concentration of DGKα was adjusted depending of the activity of the enzyme lot and was chosen appropriate to have the assay in the linear range, a typical concentration is about 0.1 nM. The reaction was stopped by the addition of […] of “ADP-Glo-reagent” (1 to 1.5 diluted with water) and the resulting mixture was incubated at 22° C. for 1 h to convert the ATP not consumed in the kinase reaction completely to cAMP. […] The amount of emitted light was taken as a measure for the amount of ADP generated and thereby for the activity of the DGKα.

Another experiment addresses T2, human DGKzeta (Homo sapiens, UniProt Q13574).
T2 construct: C-terminally FLAG-tagged, recombinant full-length human DGKζ; made in house; host or cells: baculovirus-infected insect cells
The experiment in a line: Human DGKzeta kinase activity inhibition assay (ADP-Glo). Type of experiment: biochemical. The settings on record: read-out: IC50 hDGKz. The procedure: Human diacylglycerol kinase zeta (DGKζ) inhibitory activity of compounds of the present invention was quantified employing the human DGKζ kinase activity assay as described in the following paragraphs. In essence, the enzyme activity was measured by quantification of the adenosine-di-phosphate (ADP) generated as a co-product of the enzyme reaction via the “ADP-Glo™ Kinase Assay” kit from the company Promega. This detection system works as follows: In a first step the adenosine-tri-phosphate (ATP) not consumed in the kinase reaction is quantitatively converted to cyclic adenosine-mono-phosphate (cAMP) employing an adenylate cyclase (“ADP-Glo-reagent”), then the adenylate cyclase is stopped and the ADP generated in the kinase reaction is converted to ATP, which subsequently generates in a luciferase-based reaction a glow-luminescence signal (“Kinase Detection Reagent”).
as §1, with “DGKζ (inhouse expressed” for “DGKalpha (expressed”, “chromatography)” for “chromatography as described below, DGKa_hu_1)”, “As an alternative, commercially available enzyme by Carnabio can be used. As” for “As”, “kinase,” for “kinase”
For the assay 50 nl of a 100-fold concentrated solution of the test compound in dimethyl sulfoxide (DMSO, Sigma) was pipetted into either a white 1536-well or a white low-volume 384-well microtiter plate (both Greiner Bio-One, Frickenhausen, Germany). […] The concentration of DGKζ was adjusted depending of the activity of the enzyme lot and was chosen appropriate to have the assay in the linear range, a typical concentration is about 0.1 nM. The reaction was stopped by the addition of 2.5 μL of “ADP-Glo-reagent” (1 to 1.5 diluted with water) and the resulting mixture was incubated at 22° C. for 1 h to convert the ATP not consumed in the kinase reaction completely to cAMP. […] The amount of emitted light was taken as a measure for the amount of ADP generated and thereby for the activity of the DGKζ.
In general terms: ADP-Glo first removes unused ATP, then detects ADP through luciferase.

T1 sequence (P23743 whole entry): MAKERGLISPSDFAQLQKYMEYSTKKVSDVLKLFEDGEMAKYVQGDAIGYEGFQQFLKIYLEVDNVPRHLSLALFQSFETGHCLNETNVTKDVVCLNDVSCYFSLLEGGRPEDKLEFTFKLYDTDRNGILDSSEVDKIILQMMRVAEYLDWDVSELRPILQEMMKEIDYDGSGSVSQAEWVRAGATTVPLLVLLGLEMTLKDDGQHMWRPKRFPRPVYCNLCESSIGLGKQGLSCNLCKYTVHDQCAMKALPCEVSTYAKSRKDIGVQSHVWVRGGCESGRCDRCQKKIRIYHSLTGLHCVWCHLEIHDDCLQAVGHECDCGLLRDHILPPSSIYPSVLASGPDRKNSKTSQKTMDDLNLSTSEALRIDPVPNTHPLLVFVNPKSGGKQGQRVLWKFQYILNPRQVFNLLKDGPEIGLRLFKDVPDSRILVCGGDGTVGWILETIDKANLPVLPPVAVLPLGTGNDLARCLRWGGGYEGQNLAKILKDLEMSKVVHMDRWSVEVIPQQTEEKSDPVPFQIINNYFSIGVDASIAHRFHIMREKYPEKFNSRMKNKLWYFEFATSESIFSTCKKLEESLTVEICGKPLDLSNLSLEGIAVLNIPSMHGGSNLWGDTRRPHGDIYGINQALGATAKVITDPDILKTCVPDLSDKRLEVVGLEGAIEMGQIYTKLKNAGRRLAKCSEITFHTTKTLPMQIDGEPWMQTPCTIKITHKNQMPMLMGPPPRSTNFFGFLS
T2 sequence (Q13574 whole entry): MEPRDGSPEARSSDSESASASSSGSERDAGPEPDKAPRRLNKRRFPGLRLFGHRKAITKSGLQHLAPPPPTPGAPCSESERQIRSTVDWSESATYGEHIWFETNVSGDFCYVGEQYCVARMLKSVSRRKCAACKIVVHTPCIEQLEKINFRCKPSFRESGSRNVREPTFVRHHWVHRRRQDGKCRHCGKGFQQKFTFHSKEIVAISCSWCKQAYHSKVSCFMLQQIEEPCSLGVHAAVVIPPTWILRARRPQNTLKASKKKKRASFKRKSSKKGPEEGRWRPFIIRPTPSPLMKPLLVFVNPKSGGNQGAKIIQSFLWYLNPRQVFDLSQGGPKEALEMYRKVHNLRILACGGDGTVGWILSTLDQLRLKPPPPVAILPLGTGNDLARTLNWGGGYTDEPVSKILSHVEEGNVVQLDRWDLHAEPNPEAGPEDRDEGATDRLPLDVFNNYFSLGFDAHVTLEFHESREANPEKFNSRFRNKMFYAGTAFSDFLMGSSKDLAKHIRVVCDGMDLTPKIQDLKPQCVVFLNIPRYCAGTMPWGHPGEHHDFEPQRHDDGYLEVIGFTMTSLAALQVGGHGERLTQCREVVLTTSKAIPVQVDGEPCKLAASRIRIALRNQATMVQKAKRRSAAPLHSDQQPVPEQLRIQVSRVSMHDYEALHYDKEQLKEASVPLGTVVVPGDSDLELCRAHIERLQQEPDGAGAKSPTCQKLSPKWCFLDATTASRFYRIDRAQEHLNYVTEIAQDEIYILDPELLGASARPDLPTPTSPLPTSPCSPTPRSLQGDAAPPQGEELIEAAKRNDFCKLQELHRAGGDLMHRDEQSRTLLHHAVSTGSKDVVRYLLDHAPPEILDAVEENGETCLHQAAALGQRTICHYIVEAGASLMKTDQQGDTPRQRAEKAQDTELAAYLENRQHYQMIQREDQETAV

Regarding `Cc1nc2sccn2c(=O)c1CCN1CCC(=C(c2ccccc2)c2ccc(F)cc2)CC1` [Example R59022], the “growth of intracranially injected GBM tumors” value in experiment [1] was “decreased growth of intracranially injected GBM tumors”.
Regarding `COc1ccc(C(=O)c2sc(N(c3ccc(F)c(F)c3)C(C)C(N)=O)nc2N)cc1` (single isomer, unassigned) [Example 51.1, 2-(N-[4-amino-5-(4-methoxybenzoyl)thiazol-2-yl]-3,4-difluoro-anilino)propanamide], the concentration for half-maximal inhibition (IC50) – broadly, the concentration at which inhibition is half-maximal – at human DGKalpha is over 13.3 µM; on human DGKzeta, 0.0082 µM and 0.0089 µM.
For the molecule `CC(C(N)=O)N(c1ccc(F)cc1)c1nc(N)c(C(=O)c2ccc(OC(F)F)cc2)s1` (single isomer, unassigned) [Example 44.2, 2-(N-[4-amino-5-[4-(difluoromethoxy)benzoyl]thiazol-2-yl]-4-fluoro-anilino)propanamide], the IC50 at human DGKalpha was over 20 µM; on human DGKzeta, 0.0039 µM and 0.0067 µM.
In the case of `Cc1ccc2oc(C3CCN(c4c(C(N)=O)c(=O)n(C)c5ccccc45)CC3)nc2c1` [Example 107, 1-methyl-4-[4-(5-methyl-1,3-benzoxazol-2-yl)piperidin-1-yl]-2-oxo-1,2-dihydroquinoline-3-carboxamide], the concentration for half-maximal inhibition (IC50) at human DGKzeta is over 20 µM.
With `CC(C(N)=O)N(c1ccc(F)cc1)c1nc(N)c(C(=O)c2ccc(OC(F)(F)F)cc2)s1` (single isomer, unassigned) [Example 40.2, 2-(N-[4-amino-5-[4-(trifluoromethoxy)benzoyl]thiazol-2-yl]-4-fluoro-anilino)propanamide], the IC50 is over 12.2 µM on human DGKalpha and 0.0071 µM on human DGKzeta.
Consider `CC(C(N)=O)N(c1ccc(F)cc1)c1nc(N)c(C(=O)c2ccc(C(F)(F)F)nc2)s1` (single isomer, unassigned) [Example 29.2, 2-(N-[4-amino-5-[6-(trifluoromethyl)pyridine-3-carbonyl]thiazol-2-yl]-4-fluoro-anilino)propanamide], for which the values for the IC50 on human DGKalpha and on human DGKzeta were over 15 µM and 0.046 µM, respectively.
For the molecule `CNC(=O)c1c(N2CCC(c3nc4cc(C)ccc4o3)CC2)c2ccccc2n(C)c1=O` [Example 448, N,1-dimethyl-4-[4-(5-methyl-1,3-benzoxazol-2-yl)piperidin-1-yl]-2-oxo-1,2-dihydroquinoline-3-carboxamide], the IC50 at human DGKzeta is over 20 µM.
As for `Cn1c(=O)c(C#N)c(N2CCC(c3nc4ccc(F)cc4o3)CC2)c2ccccc21` [Example 4, 4-[4-(6-fluoro-1,3-benzoxazol-2-yl)piperidin-1-yl]-1-methyl-2-oxo-1,2-dihydroquinoline-3-carbonitrile], the half-maximal inhibitory concentration (IC50) at human DGKzeta is over 20 µM.
Turning to `COc1ccc(C2CCN(c3c(C(N)=O)c(=O)n(C)c4ccccc34)CC2)cc1` [Example 112, 4-[4-(4-methoxyphenyl)piperidin-1-yl]-1-methyl-2-oxo-1,2-dihydroquinoline-3-carboxamide], the half-maximal inhibitory concentration (IC50) at human DGKzeta was over 20 µM.
